Source: patent EP3419977B1, “PLATINUM(II) RING-FUSED CHLORINS, METHODS AND USES THEREOF” (Universidade de Coimbra, priority 2016, dated 2017)
pIC50: −log10 of the molar value. Where two headings read alike, the source gives them in different places.

What was measured:
[1] = in toluene, used as standard; cited from earlier work
[2] = in water, used as standard for phosphorescence quantum yields; cited from earlier work
[3] = test system: human melanocytic melanoma cells (A375); assay: Photocytotoxicity (photodynamic treatment, MTT assay); format: cell-based; settings: 24 h incubation, irradiated 7.5 mW/cm^2 to 10 J, red filter (cut off < 560 nm)
Protocol: In an embodiment the photodynamic activity were as following: For each experiment, A375 cells were plated and kept in the incubator overnight, in order to allow the attachment of the cells. The initial formulation of the sensitizers consisted of a 1 mg/mL solution in DMSO and the desired concentrations were achieved by successive dilutions, being always administered to the cells at 1% DMSO. After sensitizer administration (from 1 nM to 10 µM), cells were incubated for 24 h. Controls were performed on every test. Cells were washed with PBS and new drug-free medium was added. Each plate was irradiated with a fluence rate of 7.5 mW/cm^2 until a total of 10 J was reached, using a light source equipped with a red filter (cut off < 560 nm).

A375 cells = settings: absence of light
Protocol: In an embodiment the cell culture conditions were as following: The A375 (CRL1619) human melanoma cell lines were purchased from American Type Culture Collection and cultured according to standard procedures using the Dulbecco's Modified Eagle medium (Sigma-Aldrich, Inc; Sigma D-5648) supplemented with 10% heat-inactivated fetal bovine serum (Gibco Invitrogen Life Technologies; Gibco 2010-04), 1% Penicillin-Streptomycin (Gibco Invitrogen Life Technologies; 100 U/mL penicillin and 10 µg/mL streptomycin - Gibco 15140-122) and 100 µM sodium pyruvate (Gibco Invitrogen Life Technologies; Gibco 1360) at 37 °C, in a humidified incubator with 95% air and 5% CO2. For all studies, cells were detached using a solution of 0.25% trypsin-EDTA (Gibco).
In an embodiment for the evaluation of photocytotoxicity a MTT assay was performed. Cell culture plates were washed and incubated with a solution of 3-(4,5-dimethylthiazol-2-yl)-2,5- diphenyltetrazolium bromide (0.5 mg/mL, Sigma) in PBS, pH 7.4, in the dark at 37 °C for 4 hours. To solubilize formazan crystals, a 0.04 M solution of hydrochloric acid in isopropanol was added. Absorbance was measured using a Biotek Synergy HT Plate Reader. Cytotoxicity was expressed as the inhibition percentage of cultures subjected to PDT, correlated with cultures only treated with the vehicle administration of sensitizers. […]

| Molecule | pIC50 [3] | further results |
| --- | --- | --- |
| C1=Cc2nc1c(-c1ccccc1)c1ccc([nH]1)c(-c1ccccc1)c1nc(c(-c3ccccc3)c3ccc([nH]3)c2-c2ccccc2)C=C1 [TPP, meso-tetraphenylporphyrin] | – | φF [1]: 0.11 |
| [Ru+2].c1ccc(-c2ccccn2)nc1.c1ccc(-c2ccccn2)nc1.c1ccc(-c2ccccn2)nc1 [tris(2,2'-bipyridyl)ruthenium (II)] | – | φF [2]: 0.042 |
| Photofrin@ | 6.81 | – |
| platinum (II) 2,3-dihydroxymethyl-4,5,6,7-tetrahydropyrazolo[1,5-α]pyridine-fused chlorin [Chlorin 8] | 6.84 | pIC50 (A375 cells): 4.65 |
| platinum (II) dimethyl 4,5,6,7-tetrahydropyrazolo[1,5-α]pyridine-2,3-dicarboxylate-fused chlorin [Chlorin 7b] | < 5.30 | – |
